Where a name gives a salt, the structure may show the parent alone. Read-outs that look alike come from different tables or passages of the source.
Assays:
Assay type in all cases: biochemical
recombinant PRL-1 = target: T1, recombinant PRL-1 (Homo sapiens, UniProt Q93096); assay: In vitro phosphatase assay (DiFMUP hydrolysis), PRL-1; further: test concentration or dose not given here
T1 construct: 6xHis (N, cleaved yes); made in house; host or cells: E. coli One Shot BL21 Star
T1 sequence (Q93096 1-173): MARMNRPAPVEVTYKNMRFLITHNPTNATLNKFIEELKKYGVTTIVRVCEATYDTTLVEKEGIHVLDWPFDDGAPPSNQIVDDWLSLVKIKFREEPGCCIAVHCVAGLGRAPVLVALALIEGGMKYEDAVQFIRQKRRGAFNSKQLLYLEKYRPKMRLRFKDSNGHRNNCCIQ

recombinant PRL-3 = target: T2, recombinant PRL-3 (Homo sapiens, UniProt O75365); assay: In vitro phosphatase assay (DiFMUP hydrolysis), PRL-3; further: test concentration or dose not given here
T2 construct: 6xHis (N, cleaved yes); made in house; host or cells: E. coli One Shot BL21 Star

recombinant PRL-2 = target: T3, recombinant PRL-2 (Homo sapiens, UniProt Q12974); assay: In vitro phosphatase assay (DiFMUP hydrolysis), PRL-2;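 further: PRL-2 activity read as DiFMUP hydrolysis after 20 min at room temperature with drug, enzyme first pre-reduced at 4 °C for 20 min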
T3 construct: 6xHis (N, cleaved yes); made in house; host or cells: E. coli One Shot BL21 Star
T3 sequence (Q12974 1-167): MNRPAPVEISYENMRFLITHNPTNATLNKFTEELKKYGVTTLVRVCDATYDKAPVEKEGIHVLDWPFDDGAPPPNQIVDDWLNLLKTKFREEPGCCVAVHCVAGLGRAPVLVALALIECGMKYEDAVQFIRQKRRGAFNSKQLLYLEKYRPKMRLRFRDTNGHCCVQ

[1] = FDA-approved drug screen, compared to DMSO

T2 sequence (O75365 whole entry): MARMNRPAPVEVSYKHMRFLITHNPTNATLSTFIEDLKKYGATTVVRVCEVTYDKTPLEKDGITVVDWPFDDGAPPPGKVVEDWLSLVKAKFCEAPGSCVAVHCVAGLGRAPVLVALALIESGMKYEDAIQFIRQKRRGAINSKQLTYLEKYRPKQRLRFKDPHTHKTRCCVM

| Structure (SMILES) | % Phosphatase Activity (compared to DMSO) PRL-1 (recombinant PRL-1; [1]) [%] | % Phosphatase Activity (compared to DMSO) PRL-3 (recombinant PRL-3; [1]) [%] | % Phosphatase Activity (compared to DMSO) PRL-2 (recombinant PRL-2; [1]) [%] | % Phosphatase Activity (compared to DMSO) PRL-1 (recombinant PRL-1) [%] | % Phosphatase Activity (compared to DMSO) PRL-3 (recombinant PRL-3) [%] | % Phosphatase Activity (compared to DMSO) PRL-2 (recombinant PRL-2) [%] |
| --- | --- | --- | --- | --- | --- | --- |
| CN1CCN(c2c(F)cc3c(=O)c(C(=O)O)cn4c3c2OCN4C)CC1 [Marbofloxacin] | 345 | 180 | 386 | – | – | – |
| CNC(=O)[C@@H](NC(=O)[C@H](CC(C)C)[C@H](O)C(=O)NO)C(C)(C)C [Marimastat(BB-2516)] | 85 | 91 | 77 | – | – | – |
| Cc1ccc(NC(=O)c2ccc(CN3CCN(C)CC3)cc2)cc1Nc1nc(-c2cccnc2)cs1 [Masitinib (AB1010)] | 115 | 92 | 117 | – | – | – |
| COC(=O)Nc1nc2ccc(C(=O)c3ccccc3)cc2[nH]1 [Mebendazole] | 90 | 79 | 83 | – | – | – |
| CCOC(=O)c1c(C)n(C)c2ccc(O)cc12 [Mecarbinate] | 108 | 77 | 100 | – | – | – |
| Cc1cccc(CN2CCN(C(c3ccccc3)c3ccc(Cl)cc3)CC2)c1.Cl.Cl (stereo not drawn) [Meclizine 2HCl] | 103 | 96 | 112 | – | – | – |
| Cc1ccc(Cl)c(Nc2ccccc2C(=O)O)c1Cl [Meclofenamate Sodium] | 99 | 81 | 104 | – | – | – |
| Cc1cccc(C(C)c2cnc[nH]2)c1C (stereo not drawn) [Medetomidine HCl] | – | – | – | 109 | 99 | 113 |
| CC(=O)O[C@]1(C(C)=O)CC[C@H]2[C@@H]3C[C@H](C)C4=CC(=O)CC[C@]4(C)[C@H]3CC[C@@]21C [Medroxyprogesterone acetate] | 89 | 85 | 89 | – | – | – |
| Cc1cccc(Nc2ccccc2C(=O)O)c1C [Mefenamic Acid] | 98 | 82 | 107 | – | – | – |
| OC(c1cc(C(F)(F)F)nc2c(C(F)(F)F)cccc12)C1CCCCN1 (stereo not drawn) [Mefloquine HCl] | 100 | 109 | 106 | – | – | – |
| CC(=O)O[C@]1(C(C)=O)CC[C@H]2[C@@H]3C=C(C)C4=CC(=O)CC[C@]4(C)[C@H]3CC[C@@]21C [Megestrol Acetate] | 86 | 67 | 92 | – | – | – |
| CNC[C@H](O)[C@@H](O)[C@H](O)[C@H](O)CO [Meglumine] | 105 | 110 | 125 | – | – | – |
| COc1ccc2[nH]cc(CCNC(C)=O)c2c1 [Melatonin] | 125 | 81 | 108 | – | – | – |
| Cc1cnc(NC(=O)C2=C(O)c3ccccc3S(=O)(=O)N2C)s1 [Meloxicam] | 74 | 83 | 75 | – | – | – |
| CC12CC3CC(C)(C1)CC(N)(C3)C2 [Memantine HCl] | 83 | 94 | 107 | – | – | – |
| CC1=CC(=O)c2ccccc2C1=O [Menadione] | 62 | 62 | 75 | – | – | – |
| C[N+]1(C)CCCC(OC(=O)C(O)(c2ccccc2)c2ccccc2)C1 (stereo not drawn) [Mepenzolate Bromide] | 93 | 80 | 93 | – | – | – |
| [O-][n+]1cccc(CO)c1 [Mepiroxol] | 100 | 87 | 112 | – | – | – |
| Cc1cccc(C)c1NC(=O)C1CCCCN1C (stereo not drawn) [Mepivacaine HCl] | 86 | 87 | 104 | – | – | – |
| C[C@H]1C[C@H]2[C@@H]3CCC4=CC(=O)C=C[C@]4(C)[C@H]3C(=O)C[C@]2(C)[C@@]1(O)C(=O)CO [Meprednisone] | 99 | 78 | 97 | – | – | – |
| CCC1(c2cccc(O)c2)CCCCN(C)C1 (stereo not drawn) [Meptazinol HCl] | 106 | 84 | 124 | – | – | – |

| Structure (SMILES) | % Phosphatase Activity (compared to DMSO) PRL-1 (recombinant PRL-1; [1]) [%] | % Phosphatase Activity (compared to DMSO) PRL-3 (recombinant PRL-3; [1]) [%] | % Phosphatase Activity (compared to DMSO) PRL-2 (recombinant PRL-2; [1]) [%] | % Phosphatase Activity (compared to DMSO) PRL-1 (recombinant PRL-1) [%] | % Phosphatase Activity (compared to DMSO) PRL-3 (recombinant PRL-3) [%] | % Phosphatase Activity (compared to DMSO) PRL-2 (recombinant PRL-2) [%] |
| --- | --- | --- | --- | --- | --- | --- |
| COc1ccc(O)cc1 [Mequinol] | 104 | 85 | 120 | – | – | – |
| S=c1nc[nH]c2nc[nH]c12 [Mercaptopurine (6-MP)] | 93 | 74 | 76 | – | – | – |
| C[C@@H](O)[C@H]1C(=O)N2C(C(=O)O)=C(S[C@@H]3CN[C@H](C(=O)N(C)C)C3)[C@H](C)[C@H]12 [Meropenem] | 104 | 57 | 109 | – | – | – |
| Nc1ccc(O)c(C(=O)O)c1 [Mesalamine] | 112 | 82 | 131 | – | – | – |
| O=S(=O)(O)CCS [Mesna] | 95 | 102 | 93 | – | – | – |
| CN1CCCCC1CCN1c2ccccc2Sc2ccc([S+](C)[O-])cc21 (stereo not drawn) [Mesoridazine Besylate] | – | – | – | 98 | 99 | 95 |
| CC(C)NCC(O)c1cc(O)cc(O)c1 (stereo not drawn) [Metaproterenol Sulfate] | 98 | 95 | 112 | – | – | – |
| C[C@H](N)[C@H](O)c1cccc(O)c1 [Metaraminol Bitartrate] | 112 | 94 | 106 | – | – | – |
| CN(C)C(=N)N=C(N)N [Metformin HCl] | 102 | 87 | 78 | – | – | – |
| C=C1c2cccc(O)c2C(=O)C2=C(O)[C@]3(O)C(=O)C(C(N)=O)=C(O)[C@@H](N(C)C)[C@@H]3[C@@H](O)[C@H]12 [Methacycline HCl] | 82 | 83 | 65 | – | – | – |
| CC(=O)/N=c1/sc(S(N)(=O)=O)nn1C [Methazolamide] | 110 | 88 | 114 | – | – | – |
| C1N2CN3CN1CN(C2)C3 [Methenamine] | 112 | 87 | 109 | – | – | – |
| Cn1cc[nH]c1=S [Methimazole] | 104 | 82 | 97 | – | – | – |
| COc1ccccc1OCC(O)COC(N)=O (stereo not drawn) [Methocarbamol] | 92 | 100 | 91 | – | – | – |
| CN(Cc1cnc2nc(N)nc(N)c2n1)c1ccc(C(=O)N[C@@H](CCC(=O)O)C(=O)O)cc1 [Methotrexate] | 92 | 70 | 83 | – | – | – |
| COc1c2occc2cc2ccc(=O)oc12 [Methoxsalen] | 81 | 78 | 99 | – | – | – |
| C[N+]1(C)[C@@H]2C[C@@H](OC(=O)[C@H](CO)c3ccccc3)C[C@H]1[C@@H]1O[C@@H]12 [Methscopolamine] | 86 | 88 | 107 | – | – | – |
| CN1C(CCl)Nc2cc(Cl)c(S(N)(=O)=O)cc2S1(=O)=O (stereo not drawn) [Methyclothiazide] | 100 | 62 | 114 | – | – | – |
| C[C@](N)(Cc1ccc(O)c(O)c1)C(=O)O [Methyldopa] | 98 | 70 | 95 | – | – | – |
| CN(C)c1ccc2nc3ccc(=[N+](C)C)cc-3sc2c1 [Methylene Blue] | 55 | 45 | 72 | – | – | – |
| C[C@H]1C[C@@H]2[C@H]([C@@H](O)C[C@@]3(C)[C@H]2CC[C@]3(O)C(=O)CO)[C@@]2(C)C=CC(=O)C=C12 [Methylprednisolone] | 90 | 92 | 95 | – | – | – |
